The test system of this assay is Influenza A/WSN/33 (H1N1) virus. Put plainly: In vitro anti-influenza virus assay (neutralization test), cytopathic effect on MDCK cells. The format is cell-based. The following applies: MDCK cells, 72 h, read-out: IC50 (concentration reducing virus-induced cytopathic effect by 50%). Here is the method: Anti-influenza activities of the coumarin compounds were evaluated by measuring the ability of a test compound to inhibit the cytopathic effect induced by an influenza virus on MDCK cells. The 96-well tissue culture plates were seeded with 200 μL of MDCK cells at a concentration of 1.1×10^5 cells/mL in DMEM with 10% fetal bovine serum (FBS). The plates were incubated for 24-30 h at 37° C. and were used at about 90% confluency. Influenza A/WSN/33 (H1N1) virus (100 TCID50) was added to the cells and incubated at 35° C. for 1 h. After adsorption, the infected cell plates were overlaid with 50 μL of DMEM plus 2% FBS and a test compound with different concentrations. The plate was incubated at 35° C. for 72 h. At the end of incubation, the plates were fixed by the addition of 100 μL of 4% formaldehyde for 1 h at room temperature. After the removal of formaldehyde, the plates were stained with 0.1% crystal violet for 15 min at room temperature. The plates were washed and dried, and the density of the well was measured at 570 nm. The concentration required for a test compound to reduce the virus-induced cytopathic effect (CPE) by 50% relative to the virus control was expressed as IC50.
Compounds 1 and 95 were also tested on various influenza virus strains. Amantadine or Relenza was also tested for comparison. IC50 is defined as the concentration required for a test compound to reduce the virus-induced cytopathic effect (CPE) by 50% relative to the virus control.
On the technique in general: Cytopathic effects are the visible damage that an infection or toxin causes in cultured cells.

[1] abbreviates: lower bound (10 nM), upper in μM.

Read-outs that look alike come from different tables or passages of the source.

As to `Cc1cc(=O)oc2c1ccc1oc(C(=O)c3ccccc3)c(-c3ccc(Cl)cc3)c12` [Compound 137], the IC50 under setting [1] lay in the range of 10 to 999 nM.

Take `Cc1cc(=O)oc2c1ccc1oc(C(=O)c3ccccc3)c(-c3ccccc3Br)c12` [Compound 138]: the IC50 under setting [1] was 10 to 999 nM.

Take `Cc1cc(=O)oc2c1ccc1oc(C(=O)c3ccccc3)c(-c3cccc(Br)c3)c12` [Compound 139]: the IC50 under setting [1] lay within 10 to 999 nM.

For the molecule `Cc1ccc(-c2c(C(=O)c3ccccc3)oc3ccc4c(C)cc(=O)oc4c23)cc1` [Compound 142], under setting [1], the IC50 was in the range of 10 to 999 nM.

Turning to `Cc1cc(=O)oc2c1ccc1oc(C(=O)c3ccccc3)c(-c3cccc(C#N)c3)c12` [Compound 143], under setting [1], the IC50 was in the range of 10 to 999 nM.

As for `Cc1cc(=O)oc2c1ccc1oc(C(=O)c3ccccc3)c(-c3cccc([N+](=O)[O-])c3)c12` [Compound 144], the IC50 under setting [1] fell in the range of 10 to 999 nM.

For `Cc1cc(=O)oc2c1ccc1oc(C(=O)c3ccccc3)c(-c3ccc([N+](=O)[O-])cc3)c12` [Compound 145], the IC50 under setting [1] fell in the range of 10 to 999 nM.

On to `Cc1cc(=O)oc2c1ccc1oc(C(=O)c3ccccc3)c(-c3cccc(N)c3)c12` [Compound 146], for which the IC50 under setting [1] is 10 to 999 nM.

Take `Cc1cc(=O)oc2c1ccc1oc(C(=O)c3ccccc3)c(-c3ccc4ccccc4c3)c12` [Compound 147]: under “ranges given”, the IC50 was in the range of 1000 to 5900 nM.

In the case of `Cc1cc(=O)oc2c1ccc1oc(C(=O)c3ccccc3)c(-c3cc(F)cc(F)c3)c12` [Compound 148], under setting [1], the IC50 lay in the range of 10 to 999 nM.

`Cc1cc(=O)oc2c1ccc1oc(C(=O)c3ccccc3)c(-c3cc(Cl)cc(Cl)c3)c12` [Compound 149]: the IC50 (ranges given) was in the range of 1000 to 5900 nM.

With `Cc1cc(=O)oc2c1ccc1oc(C(=O)c3ccccc3)c(-c3cc(Br)cc(Br)c3)c12` [Compound 150], the IC50 under setting [1] is 10 to 999 nM.

`Cc1cc(=O)oc2c1ccc1oc(C(=O)c3ccccc3)cc12` [Compound 153]: the IC50 (ranges given) lay within 1000 to 5900 nM.

For the molecule `Cc1cc(=O)oc2c1ccc1oc(C(=O)c3ccccc3)c(C)c12` [Compound 154], under “ranges given”, the IC50 lay within 1000 to 5900 nM.

On to `CCCc1c(C(=O)c2ccccc2)oc2ccc3c(C)cc(=O)oc3c12` [Compound 155], for which, under setting [1], the IC50 lay in the range of 10 to 999 nM.

Regarding `CCCCCc1c(C(=O)c2ccccc2)oc2ccc3c(C)cc(=O)oc3c12` [Compound 156], the IC50 under setting [1] is 10 to 999 nM.

On to `CCCCCCc1c(C(=O)c2ccccc2)oc2ccc3c(C)cc(=O)oc3c12` [Compound 157], for which the IC50 under setting [1] lay within 10 to 999 nM.

Turning to `Cc1cc(=O)oc2c1ccc1oc(C(=O)c3ccccc3)c(-c3ccco3)c12` [Compound 159], under setting [1], the IC50 lay in the range of 10 to 999 nM.

For the molecule `Cc1cc(=O)oc2c1ccc1oc(C(=O)c3ccccc3)c(-c3cccs3)c12` [Compound 160], under setting [1], the IC50 is 10 to 999 nM.

Regarding `Cc1cc(=O)oc2c1ccc1oc(C(=O)c3ccccc3)c(/C=C/c3ccccc3)c12` [Compound 161], the IC50 (ranges given) is 1000 to 5900 nM.

Consider `Cc1cc(=O)oc2c1ccc1oc(C(=O)c3ccccc3)c(C3CCCCC3)c12` [Compound 165], for which the IC50 (ranges given) was in the range of 1000 to 5900 nM.

`Cc1cc(=O)oc2c1ccc1oc(C(=S)c3ccccc3)c(-c3ccccc3)c12` [Compound 166]: the IC50 under setting [1] was 10 to 999 nM.

On to `Cc1cc(=O)oc2c1ccc1oc(/C(=N/O)c3ccccc3)c(-c3ccccc3)c12` [Compound 171], for which the IC50 (ranges given) lay in the range of 1000 to 5900 nM.

Consider `Cc1cc(=O)oc2c1ccc1oc(C(O)c3ccccc3)c(-c3ccccc3)c12` (stereo not shown) [Compound 172], for which the IC50 under setting [1] was in the range of 10 to 999 nM.

Turning to `Cc1cc(=O)oc2c1ccc1oc(Cc3ccccc3)c(-c3ccccc3)c12` [Compound 173], the IC50 under setting [1] lay within 10 to 999 nM.

With `Cc1cc(=O)oc2c1ccc1oc(C(=O)c3cccc(OCCOCCOCCO)c3)c(-c3ccccc3)c12` [Compound 177], the IC50 (ranges given) fell in the range of 6000 to 25000 nM.

For `Cc1cc(=O)oc2c1ccc1oc(C(=O)c3cccc(OCCOCCOCCOCCCl)c3)c(-c3ccccc3)c12` [Compound 178], the IC50 (ranges given) was in the range of 1000 to 5900 nM.

With `Cc1cc(=O)oc2c1ccc1oc(C(=O)c3cccc(OCC4CC4)c3)c(-c3ccccc3)c12` [Compound 179], under setting [1], the IC50 lay in the range of 10 to 999 nM.

Turning to `CC(=O)Oc1cccc(C(=O)c2oc3ccc4c(C)cc(=O)oc4c3c2-c2ccccc2)c1` [Compound 180], the IC50 under setting [1] is 10 to 999 nM.

Turning to `Cc1cc(=O)oc2c1ccc1oc(C(=O)c3cccc(OC(=O)C4CC4)c3)c(-c3ccccc3)c12` [Compound 181], where the note is “ranges given”, the IC50 was in the range of 1000 to 5900 nM.

Take `C=CC(=O)Oc1cccc(C(=O)c2oc3ccc4c(C)cc(=O)oc4c3c2-c2ccccc2)c1` [Compound 182]: the IC50 (ranges given) lay within 1000 to 5900 nM.

Take `Cc1cc(=O)oc2c1ccc1oc(C(=O)c3cccc(OCCN[C@@]45C[C@@H]6C[C@@H](C[C@@](O)(C6)C4)C5)c3)c(-c3ccccc3)c12` [Compound 183]: for the setting “ranges given”, the IC50 was in the range of 6000 to 25000 nM.

As for `Cc1cc(=O)oc2c1ccc1oc(C(=O)c3cccc(OCCO)c3)c(-c3ccccc3)c12` [Compound 184], the IC50 (ranges given) lay within 6000 to 25000 nM.

With `Cc1cc(=O)oc2c1ccc1oc(C(=O)c3cccc(OCCCO)c3)c(-c3ccccc3)c12` [Compound 185], the IC50 (ranges given) lay in the range of 1000 to 5900 nM.

On to `Cc1cc(=O)oc2c1ccc1oc(C(=O)c3cccc(OCCCCO)c3)c(-c3ccccc3)c12` [Compound 186], for which the IC50 under setting [1] was in the range of 10 to 999 nM.

Turning to `Cc1cc(=O)oc2c1ccc1oc(C(=O)c3cccc(OCCCCCO)c3)c(-c3ccccc3)c12` [Compound 187], the IC50 (ranges given) lay in the range of 1000 to 5900 nM.

Consider `Cc1cc(=O)oc2c1ccc1oc(C(=O)c3cccc(OCCCCCCO)c3)c(-c3ccccc3)c12` [Compound 188], for which the IC50 under setting [1] was in the range of 10 to 999 nM.

For the molecule `Cc1cc(=O)oc2c1ccc1oc(C(=O)c3cccc(OCCO[Si](C)(C)C(C)(C)C)c3)c(-c3ccccc3)c12` [Compound 189], under setting [1], the IC50 was 10 to 999 nM.

Take `Cc1cc(=O)oc2c1ccc1oc(C(=O)c3cccc(OCCCO[Si](C)(C)C(C)(C)C)c3)c(-c3ccccc3)c12` [Compound 190]: the IC50 (ranges given) lay in the range of 1000 to 5900 nM.

For the molecule `Cc1cc(=O)oc2c1ccc1oc(C(=O)c3cccc(OCCCCCCO[Si](C)(C)C(C)(C)C)c3)c(-c3ccccc3)c12` [Compound 193], the IC50 (ranges given) was 1000 to 5900 nM.

Turning to `CC(=O)OCC1C(OCCOc2cccc(C(=O)c3oc4ccc5c(C)cc(=O)oc5c4c3-c3ccccc3)c2)OC(OC(C)=O)C(OC(C)=O)C1OC(C)=O` (stereo not shown) [Compound 194], the IC50 (ranges given) lay in the range of 6000 to 25000 nM.

Take `Cc1cc(=O)oc2c1ccc1oc(C(=O)c3cccc(OCCOC4OC(O)C(O)C(O)C4CO)c3)c(-c3ccccc3)c12` (stereo not shown) [Compound 195]: under “ranges given”, the IC50 was in the range of 6000 to 25000 nM.

Take `CC(=O)OCC1OC(OCCCOc2cccc(C(=O)c3oc4ccc5c(C)cc(=O)oc5c4c3-c3ccccc3)c2)C(OC(C)=O)C(OC(C)=O)C1OC(C)=O` (stereo not shown) [Compound 196]: the IC50 (ranges given) lay within 6000 to 25000 nM.

As for `Cc1cc(=O)oc2c1ccc1oc(C(=O)c3cccc(OCCCOC4OC(CO)C(O)C(O)C4O)c3)c(-c3ccccc3)c12` (stereo not shown) [Compound 197], the IC50 (ranges given) fell in the range of 6000 to 25000 nM.

For `Cc1cc(=O)oc2c1ccc1oc(C(=O)c3cccc(OC(=O)C#Cc4ccccc4)c3)c(-c3ccccc3)c12` [Compound 201], the IC50 (ranges given) was 1000 to 5900 nM.

Regarding `C#CCCC(=O)Oc1cccc(C(=O)c2oc3ccc4c(C)cc(=O)oc4c3c2-c2ccccc2)c1` [Compound 202], the IC50 (ranges given) fell in the range of 1000 to 5900 nM.

With `CCCCCC#CC(=O)Oc1cccc(C(=O)c2oc3ccc4c(C)cc(=O)oc4c3c2-c2ccccc2)c1` [Compound 203], the IC50 (ranges given) lay in the range of 1000 to 5900 nM.

`Cc1cc(=O)oc2c1ccc1oc(C(=O)O)c(-c3ccccc3)c12` [Compound 205]: the IC50 (ranges given) was 1000 to 5900 nM.

For `Cc1cc(=O)oc2c1ccc1oc(C(=O)c3ccccc3)c(-c3cccc4ccccc34)c12` [Compound 206], the IC50 under setting [1] lay in the range of 10 to 999 nM.

For the molecule `Cc1cc(=O)oc2c1ccc1oc(C(=O)c3ccccc3)c(-c3cccc(C(=O)O)c3)c12` [Compound 207], where the note is “ranges given”, the IC50 was in the range of 1000 to 5900 nM.

As for `Cc1cc(=O)oc2c1ccc1oc(C(=O)c3ccc([N+](=O)[O-])cc3)c(-c3ccc(Br)cc3)c12` [Compound 216], the IC50 (ranges given) was in the range of 6000 to 25000 nM.

As to `Cc1cc(=O)oc2c1ccc1oc(C(=O)c3cccc(Cl)c3)c(-c3ccc(Br)cc3)c12` [Compound 217], the IC50 (ranges given) is 6000 to 25000 nM.

Regarding `Cc1cc(=O)oc2c1ccc1oc(C(=O)c3ccc4ccccc4c3)c(-c3ccc(F)cc3)c12` [Compound 220], the IC50 (ranges given) lay in the range of 1000 to 5900 nM.

Consider `Cc1cc(=O)oc2c1ccc1oc(C(=O)c3cc(F)ccc3F)c(-c3ccc(F)cc3)c12` [Compound 221], for which the IC50 (ranges given) was 1000 to 5900 nM.

For `Cc1cc(=O)oc2c1ccc1oc(C(=O)c3cccc(Cl)c3)c(-c3ccc(F)cc3)c12` [Compound 222], the IC50 under setting [1] fell in the range of 10 to 999 nM.

`Cc1cc(=O)oc2c1ccc1oc(C(=O)c3ccccc3)c(-c3ccc(Cl)c(Cl)c3)c12` [Compound 224]: the IC50 (ranges given) lay within 6000 to 25000 nM.

For `Cc1cc(=O)oc2c1ccc1oc(C(O)c3ccccc3)cc12` (stereo not shown) [Compound 226], the IC50 (ranges given) was in the range of 1000 to 5900 nM.

Consider `Cc1cc(=O)oc2c1ccc1[nH]c3ccccc3c12` [Compound 231], for which the IC50 (ranges given) is 6000 to 25000 nM.

On to `C#CCOc1cccc(C(=O)c2oc3ccc4c(C)cc(=O)oc4c3c2-c2ccccc2)c1` [Compound 233], for which the IC50 under setting [1] fell in the range of 10 to 999 nM.

Take `Cc1cc(=O)oc2c1ccc1oc(C(O)c3ccccc3)c(-c3cccc(C#N)c3)c12` (stereo not shown) [Compound 234]: the IC50 under setting [1] is 10 to 999 nM.

For the molecule `Cc1cc(=O)oc2c1ccc1oc(C(=O)c3cccc(OCCCCI)c3)c(-c3ccccc3)c12` [Compound 236], the IC50 (ranges given) was in the range of 1000 to 5900 nM.

(Values after US20090312406A1, “COUMARIN COMPOUNDS AND THEIR USE FOR TREATING VIRAL INFECTION” (priority 2008, published 2009).)
